Assay results published in patent EP0158545A1, “[Alpha-(alkylaminomethyl)-benzylthio]-acetic-acid derivatives, process for their preparation and their therapeutic use” (priority 1984, dated 1985).

How the values were obtained:
souris [1] = settings: half an hour after I.P., dépression de 600 mmHg
souris [2] = assay: Behavioural despair (forced immersion), mouse; assay type: in vivo; settings: half an hour after I.P., plus forte dose utilisée (64 mg/kg)
Source text: On note la durée totale d'immobilité entre la 2ème et la 6ème minutes suivant l'immersion.

souris [3] = assay: Interaction with reserpine (hypothermia, ptosis), mouse; assay type: in vivo
Procedure: Quatre heures après l'injection intrapéritonéale de 2,5 mg/kg de réserpine, des lots de 12 souris reçoivent le CRL 41 190. On étudie l'influence du produit à tester sur l'hypothermie et le ptôsis réserpiniques.

souris [4] = assay: Four-plate test, traction and electroshock, mouse; assay type: in vivo
Procedure: Le test est pratiqué sur des lots de 10 souris 0,50 h après l'administration du produit à étudier.

souris [5] = assay: Spontaneous motility (actimeter), mouse; assay type: in vivo; settings: souris, 0,5 h after I.P., recorded 30 minutes; plus forte dose utilisée (64 mg/kg)
souris [6] = assay: Interaction with barbital (sleep duration), mouse; assay type: in vivo; settings: barbital 220 mg/kg I.P. half an hour after product, plus forte dose utilisée (64 mg/kg)
rats = assay: Interaction with amphetamine (stereotypies), rat; assay type: in vivo; settings: amphétamine 2 mg/kg I.P. half an hour after product, doses de 8 et 32 mg/kg
Procedure: L'amphétamine (2 mg/kg) est injectée par voie intrapéritonéale à des lots de 6 rats, une demi -heure après l'administration de CRL 41 190.

souris mâle [7] = settings: mouse, in vivo, ip
Procedure: (§1) On a résumé ci-après les résultats des essais neuropsychopharmacologiques qui ont été entrepris avec les produits préférés selon l'invention, le CRL 41 190 (Ex 1) et le CRL 41 214 (Ex 3). Dans ce résumé, les deux produits à tester mis en solution dans de l'eau distillée ont été administrés, sauf indiction contraire, par voie intrapéritonéale sous un volume de 20 ml/kg chez la souris mâle et sous un volume de 5 ml/kg chez le rat mâle. […]
La DL-0 (dose maximale non mortelle) du CRL 41 190 est supérieure à 128 mg/kg par voie I.P. chez la souris mâle, et la DL-30 est de l'ordre de 256 mg/kg.
Par voie I.P. chez la souris mâle, la DL-0 est supérieure à 256 mg/kg.

souris [8] = assay: Motility reduced by habituation to the enclosure, mouse; assay type: in vivo; settings: I.P., after 18 heures in actimeter
souris mâle [9] = assay: Complementary neuropsychopharmacological tests by gastric route, mouse; assay type: in vivo; settings: voie gastrique, 20 ml/kg in distilled water
Procedure: Des essais complémentaires ont été entrepris, le CRL 41 190 en solution dans de l'eau distillée étant administré par voie gastrique sous un volume de 20 ml/kg chez la souris mâle.

l'homme = assay: Clinical treatment of depression, oral administration; assay type: in vivo
rat [10] = assay: Interaction with apomorphine, rat; assay type: in vivo; settings: product I.P. 0,50 h before s.c. 0,5 mg/kg apomorphine
souris [11] = assay: Intergroup aggressiveness, mouse; assay type: in vivo; settings: half an hour after I.P., 10 minutes, plus forte dose utilisée (64 mg/kg)
Procedure: Après avoir séjourné pendant 3 semaines dans chacune des moitiés d'une cage séparées par une cloison opaque, des groupes de 3 souris reçoivent le CRL 41 190. Une demi-heure plus tard, les deux groupes d'une même cage sont réunis par retrait de la cloison et on note le nombre de combats qui surviennent en 10 minutes.

souris [12] = assay: Asphyxic anoxia (gallamine triethiodide), mouse; assay type: in vivo; settings: product I.P. half an hour before triiodoéthylate de gallamine 32 mg/kg I.P.
souris [13] = assay: Interaction with oxotremorine, mouse; assay type: in vivo
souris [14] = assay: Interaction with apomorphine, mouse; assay type: in vivo; settings: product I.P. 0,50 h before s.c. apomorphine
Procedure: • 1°) chez la souris • Des lots de 6 souris reçoivent le produit à étudier 0,50 h avant une injection sous-cutanée de 1 mg/kg ou 16 mg/kg d'apomorphine.

rat [15] = assay: Global behaviour and reactivities, rat; assay type: in vivo; settings: I.P.
Procedure: as §1
(§2) Des lots de trois animaux sont observés avant puis 0,25 h, 0,5, h, 1 h, 2 h, 3 h et 24 h après administration de CRL 41 190.

souris [16] = assay: Global behaviour and reactivities, mouse; assay type: in vivo; settings: I.P.
Procedure: as §1, §2

[17] = souris, 0,50 h after I.P. administration
[18] = oxotrémorine 0,5 mg/kg I.P., dose de 64 mg/kg

CC(C)(C)NCC(SCC(N)=O)c1ccccc1 (racemic) [CRL 41 190, chlorhydratede [α-(tertiobutylamino-méthyl)-benzyl]-thioacétamide]
récupération motrice après anoxie hypobare aigue (souris [1]): n'entraîne pas d'amélioration de la récupération motrice | durée de l'immobilité de la souris placée en immersion forcée (souris [2]): diminue nettement la durée de l'immobilité de la souris placée en immersion forcée | hypothermie réserpinique (souris [3]; product 4 h after réserpine 2,5 mg/kg I.P., dès la dose de 4 mg/kg): antagonise l'hypothermie réserpinique | ptôsis réserpinique (souris [3]; réserpine 2,5 mg/kg I.P., 16 mg/kg et 64 mg/kg, from half an hour after administration): antagonise faiblement le ptôsis réserpinique | hypothermie réserpinique (souris [3]; réserpine 2,5 mg/kg I.P., deux plus fortes doses (16 mg/kg et 64 mg/kg)): Cet antagonisme est très net | effets convulsivants de l'électrochoc (souris [4]; [17]): ne modifie pas les effets convulsivants | incapacité motrice (traction) (souris [4]; [17]): ne provoque pas d'incapacité motrice majeure | nombre de passages punis (test des quatre plaques) (souris [4]; [17]): n'entraîne pas d'augmentation du nombre de passages punis | effets létaux de l'électrochoc (souris [4]; souris, I.P., dose de 64 mg/kg): aggrave, à la dose de 64 mg/kg, les effets létaux de l'électrochoc | activité motrice spontanée (souris [5]): ne modifie pratiquement pas l'activité motrice spontanée de la souris | durée du sommeil barbiturique (souris [6]): diminue la durée du sommeil barbiturique | durée des stéréotypies amphétaminiques (rats): augmente nettement la durée des stéréotypies amphétaminiques | DL-0 (dose maximale non mortelle) (souris mâle [7]): > 128 mg/kg | DL-30 (souris mâle [7]): ~256 mg/kg | reprise d'activité motrice chez la souris habituée à son enceinte (souris [8]): n'entraîne pas de reprise d'activité motrice chez la souris habituée à son enceinte | overall CNS profile by gastric route (souris mâle [9]): agit essentiellement en tant qu'antidépresseur avec, à fortes doses, une composante éveillante et stimulante très modérée | traitement des dépressions chez l'homme (l'homme; administration orale, gélules ou comprimés 25 mg ou 50 mg, 1 à 2 prises par jour, deux à trois semaines): bons résultats | propriétés antidépressives chez les personnes agées (l'homme; clinical, oral): se manifestaient de façon très bénéfique chez les personnes agées | stéréotypies induites par l'apomorphine (rat [10]): laisse inchangées les stéréotypies induites par l'apomorphine | nombre de combats (souris [11]): augmente modérément le nombre de combats | délai d'apparition des convulsions et de la mort consécutives à une anoxie asphyxique (souris [12]): ne modifie pas le délai d'apparition des convulsions et de la mort | signes de stimulation cholinergique périphérique dûs à l'oxotrémorine (souris [13]; oxotrémorine 0,5 mg/kg I.P., aux autres doses (below 64 mg/kg)): ne modifie pratiquement pas les signes de stimulation cholinergique péripherique dûs à l'oxotrémorine | intensité des tremblements dûs à l'oxotrémorine (souris [13]; [18]): diminue faiblement l'intensité des tremlblements dûs à l'oxotrémorine | salivation (symptômes cholinergiques périphériques) (souris [13]; [18]): diminue faiblement la salivation entre les 1,5 h et 2 h qui suivent son administration | hypothermie induite par l'oxotrémorine (souris [13]; oxotrémorine 0,5 mg/kg I.P., doses de 4 mg/kg, 16 mg/kg et surtout 64 mg/kg): Cet antagonisme est net | hypothermie induite par l'oxotrémorine (souris [13]; product half an hour before oxotrémorine 0,5 mg/kg I.P., dès la dose de 1 mg/kg): s'oppose à l'hypothermie induite par l'oxotrémorine | comportements de verticalisation et stéréotypies (apomorphine) (souris [14]): ne sont pratiquement pas modifiés | hypothermie induite par 16 mg/kg d'apomorphine (souris [14]; dès la dose de 1 mg/kg): antagonise dès la dose de 1 mg/kg l'hypothermie induite par 16 mg/kg d'apomorphine | hypothermie induite par 1 mg/kg d'apomorphine (souris [14]; plus forte dose utilisée (64 mg/k)): s'oppose à l'hypothermie induite par 1 mg/kg d'apomorphine | comportement global et réactivités (rat [15]; dose de 32 mg/kg): une mydriase pendant 1 h | comportement global et réactivités (rat [15]; doses de 0,5 mg/kg à 8 mg/kg): un comportement, des réactivités, une variation de la température rectale, et une variation du diamètre pupillaire sensiblement comparables à ceux du lot témoin | comportement global et réactivités (souris [16]; dose de 1 mg/kg, observed 0,25 h to 24 h): aùcune modification nette du comportement et et des réactivités | comportement global et réactivités (souris [16]; dose de 64 mg/kg): une augmentation de la réaction de peur pendant 1 h et de la réactivité au toucher de 0,5 h à 1 h, une sédation, et, une mydriase faible pendant 1 h | comportement global et réactivités (souris [16]; doses de 4 et 16 mg/kg): une augmentation de la réaction de peur, d'υne part, et une augmentation de la réactivité au toucher pendant 0,5 h
